The values that follow come from ChEMBL document CHEMBL6078714, “Discovery of N-Trifluoromethylated Noscapines as Novel and Potent Agents for the Treatment of Glioblastoma” (J Med Chem, 2025).

For series [1], the system named is U-118-MG. The series can be described thus: Antiproliferative activity against human U-118-MG cells assessed as inhibition of cell proliferation incubated for 72 hrs by CCK8 assay. The format is functional, cell-based. On the technique in general: Tetrazolium dyes change colour on reduction, which living cells bring about.
For series [2], the system named is U-118-MG. In words: Antiproliferative activity against human U-118- MG cells assessed as inhibition of cell proliferation at 10 uM by crystal violet staining based analysis. Format: functional.
Series [3] is described as follows: Permeability of compound incubated for 12 hrs by PAMPA. Conditions: read-out: permeability. The format is ADME. For orientation: PAMPA measures passive passage across an artificial lipid membrane.
In series [4] the test system is U-118-MG. The series can be described thus: Antiproliferative activity against human U-118- MG cells assessed as inhibition of cell proliferation by crystal violet staining based analysis. Conditions: dose 10-40 µM. Format: functional.
Series [5] deals with U-87 MG. The series can be described thus: Antiproliferative activity against human U-87 MG cells assessed as inhibition of cell proliferation incubated for 72 hrs by CCK8 assay. The format is functional, cell-based, U-87MG ATCC.
For series [6], the system named is U-118-MG. The series can be described thus: Cell cycle arrest in human U-118-MG cells assessed as accumulation of cells at G2 phase at 20 uM incubated for 24 hrs by flow cytometric analysis (reference value: 30.6 %). The format is functional. On the technique in general: A flow cytometer gives signals particle by particle.
Series [7] concerns U-118-MG. In words: Antitumor activity against human U-118-MG cells xenografted in male BALB/c nude mouse assessed as tumor growth inhibition at 10 mg/kg, ip administered daily for 4 weeks relative to control. Format: functional. Conditions: 672 h, read-out: TGI.
A short description of series [8]: Drug distribution in male Swiss albino mouse brain at 5 mg/kg, iv measured after 0.5 hrs. Format: ADME, organism-based. The settings on record: read-out: Ct.
Series [9] deals with U-118-MG. The series can be described thus: Cell cycle arrest in human U-118-MG cells assessed as accumulation of cells at S phase at 20 uM incubated for 24 hrs by flow cytometric analysis (reference value: 10.7 %). Format: functional.
A short description of series [10]: Drug distribution in male Swiss albino mouse plasma at 5 mg/kg, iv measured after 0.5 hrs. The format is ADME, organism-based.
The test system of series [11] is U-118-MG. In words: Cell cycle arrest in human U-118-MG cells assessed as accumulation of cells at G1 phase at 20 uM incubated for 24 hrs by flow cytometric analysis (reference value: 56.2 %). The format is functional.
The subject of series [12] is U-118-MG. The series can be described thus: Induction of apoptosis in human U-118-MG cells assessed as apoptotic rate at 20 uM incubated for 24 hrs by Annexin V-FITC/PI staining based flow cytometric analysis relative to control. The format is functional.
The nature of series [13]: Ratio of drug concentration in male Swiss albino mouse brain to plasma at 5 mg/kg, iv measured after 0.5 hrs. The format is ADME, organism-based. Conditions: read-out: BPR.
A short description of series [14]: Stability of compound in sodium phosphate buffer at pH 7.4 measured after 48 hrs by 1H NMR analysis. Format: physicochemical. The settings on record: pH 7.4, 48 h.
The nature of series [15]: Stability of compound in 0.1M HCl solution at pH 1.0 measured after 48 hrs by 1H NMR analysis. The settings on record: buffer, pH 1, 48 h. Format: physicochemical.
Series [16] relates to U-87 MG. The series can be described thus: Antiproliferative activity against human U87 cells. The format is functional, cell-based, U-87MG ATCC.
Series [17] can be described thus: Stability of compound in sodium carbonate buffer at pH 10 measured after 48 hrs by 1H NMR analysis. Format: physicochemical. The settings on record: pH 10, 48 h.
A short description of series [18]: Stability of compound in 0.1M HCl solution at pH 1.0 assessed as parent compound remaining measured after 6 hrs by 1H NMR analysis. Format: physicochemical. The settings on record: read-out: Stability.
The nature of series [19]: Stability of compound in 0.1M HCl solution at pH 1.0 assessed as parent compound remaining measured after 48 hrs by 1H NMR analysis. Format: physicochemical. The settings on record: read-out: Stability.
Series [20] concerns U-118-MG. In words: Cell cycle arrest in human U-118-MG cells assessed as accumulation of cells at G1 phase at 100 uM incubated for 24 hrs by flow cytometric analysis (reference value: 56.2 %). Format: functional.
The nature of series [21]: Nephrotoxicity in male BALB/c nude mouse xenografted with human U-118-MG cells assessed as intravascular necrosis of renal tubules at 0.5 mg/kg, ip administered daily for 4 weeks by H and E staining based analysis. Format: toxicity, organism-based. The settings on record: in vivo, 672 h.
In series [22] the test system is U-118-MG. In words: Cell cycle arrest in human U-118-MG cells assessed as accumulation of cells at S phase at 100 uM incubated for 24 hrs by flow cytometric analysis (reference value: 10.7 %). Format: functional.
The subject of series [23] is U-118-MG. In words: Antitumor activity against human U-118-MG cells xenografted in male BALB/c nude mouse assessed as tumor growth inhibition at 2.5 mg/kg, ip administered daily for 4 weeks relative to control. Format: functional. Conditions: 672 h, read-out: TGI.
Series [24] is described as follows: Nephrotoxicity in male BALB/c nude mouse xenografted with human U-118-MG cells assessed as shedding of renal tubular epithelial cells at 0.5 mg/kg, ip administered daily for 4 weeks by H and E staining based analysis. The format is toxicity, organism-based. The settings on record: in vivo, 672 h.
Series [25] in a line: Toxicity in male BALB/c nude mouse xenografted with human U-118-MG cells assessed as body weight loss at 2.5 mg/kg, ip administered daily for 4 weeks. The format is organism-based. The settings on record: in vivo, 672 h.
Series [26] has as its system U-118-MG. In words: Cell cycle arrest in human U-118-MG cells assessed as accumulation of cells at G2 phase at 100 uM incubated for 24 hrs by flow cytometric analysis (reference value: 30.6 %). The format is functional.

Structures are written as SMILES. Activity calls are given as the source filed them. The rule behind the calls is not given here.

Broadly, the IC50 is the concentration at which inhibition is half-maximal. For `COc1ccc2c(c1OC)C(=O)O[C@@H]2[C@H]1c2c(c(C#N)c3c(c2OC)OCO3)CCN1C(F)(F)F`, the results for the IC50 in [1] and in series [5] were 19.7 µM and 39.1 µM, respectively. The result in series [2] was Active. Further, in series [3], the Papp at 12 h turned out to be 12.8 ×10⁻⁶ cm/s. For the same compound, the Activity entry in [4] is “Dose-dependent-effect”.
As for `COc1ccc2c(c1OC)C(=O)O[C@@H]2[C@H]1c2c(cc3c(c2OC)OCO3)CCN1C` [NOSCAPINE], the Activity is listed as 34.1% in series [6], 10.7% in series [9], 52.9% in [11] and 16.3% in series [12]. Also, the concentration for half-maximal inhibition (IC50) in series [1] and in [5] was above 100 µM each time. In series [7], the inhibition in vivo at 10 mg/kg amounted to 31%. Also, the values for the concentration at 0.5 h in [8] and in series [10] were 19.6 ng/g and 45.3 ng/mL, respectively. Further, the Papp at 12 h in [3] came to 11 ×10⁻⁶ cm/s. The Kp at 0.5 h in series [13] came out at 0.43.
Regarding `FC(F)(F)N1CCc2ccccc2C1`, the Stability result in series [14] and in series [15] was “Stable” throughout.
As for `FC(F)(F)N1CCc2ccccc2C1Cc1ccccc1` (configuration not stated), the Stability result in [14] and in [15] was “Stable” each time.
For the compound `COc1ccc2c(c1OC)C(=O)O[C@@H]2[C@H]1c2c(c(Cl)c3c(c2OC)OCO3)CCN1C(F)(F)F`, the IC50 came out at 9.83 µM in [1] and 25.8 µM in [5]. Besides, the outcome in series [2] was Active. For the same compound, the Papp at 12 h in [3] was 16.8 ×10⁻⁶ cm/s. The Activity entry in series [4] is “Dose-dependent-effect”.
In the same order, the values of `COc1ccc2c(c1OC)C(=O)O[C@@H]2[C@H]1c2c(c(I)c3c(c2OC)OCO3)CCN1C(F)(F)F` are 17.5 µM, 33.4 µM, “Active”, 15.8 ×10⁻⁶ cm/s and “Dose-dependent-effect”.
Regarding `CC1=C2CC[C@@](C)(O)[C@@H]2[C@H]2OC(=O)[C@@H](CN(C)C)[C@@H]2CC1`, in series [16], the IC50 came out at 21 µM.
With `FC(F)(F)N1CCCc2ccccc21`, the Stability entry in series [14], in [17] and in series [15] was “Unstable” throughout. In [18], the remaining at 6 h was 7%.
Consider `COc1ccc2c(c1OC)C(=O)O[C@@H]2[C@H]1c2c(cc3c(c2OC)OCO3)CCN1C(F)(F)F`, for which the IC50 in [1] came to 31.3 µM; in [5], 67.5 µM. For the same compound, in series [2], the result was Active. For the same compound, the Stability result in series [14] and in series [17] was “Stable” in each case. The Papp at 12 h in series [3] was 18 ×10⁻⁶ cm/s. Also, the Activity result in series [4] was “Dose-dependent-effect”. Moreover, the remaining at 48 h in series [19] is 73%.
Take `Cn1nnc2c(C(N)=O)ncn2c1=O` [TEMOZOLOMIDE]: the IC50 in series [1] and in [5] was above 100 µM in each case. In addition, the Activity in series [20] was 41.3%; in series [21], “Toxic”; in [22], 18.9%; in [24] it was “Toxic”; in series [25], “Toxic”; in series [26], 36.8%. Moreover, the inhibition in vivo at 2.5 mg/kg in [23] was 80.4%. Besides, the Papp at 12 h in series [3] was found to be 1.47 ×10⁻⁶ cm/s.
For the compound `FC(F)(F)N1CCc2ccccc2[C@@H]1c1ccccc1`, the Stability result in series [14] and in [15] was “Stable” in each case.
`CC1c2ccccc2CCN1C(F)(F)F` (configuration not stated): the Stability entry in series [14] and in series [15] was “Stable” each time.
